Reference: ChEMBL document CHEMBL3988442, “University of Dundee, Small-Polar-MMV Screening Library” (2021)
Where “and” joins values, the source holds several entries; their conditions need not be identical. Identical values can stand only once.

Legend:
Histidine--tRNA ligase = target: T1, Histidine--tRNA ligase (Leishmania infantum, UniProt A4I591); assay: Leishmania infantum Histidine tRNA synthetase (LdHisRS); assay type: functional
T1 sequence (A4I591 whole entry): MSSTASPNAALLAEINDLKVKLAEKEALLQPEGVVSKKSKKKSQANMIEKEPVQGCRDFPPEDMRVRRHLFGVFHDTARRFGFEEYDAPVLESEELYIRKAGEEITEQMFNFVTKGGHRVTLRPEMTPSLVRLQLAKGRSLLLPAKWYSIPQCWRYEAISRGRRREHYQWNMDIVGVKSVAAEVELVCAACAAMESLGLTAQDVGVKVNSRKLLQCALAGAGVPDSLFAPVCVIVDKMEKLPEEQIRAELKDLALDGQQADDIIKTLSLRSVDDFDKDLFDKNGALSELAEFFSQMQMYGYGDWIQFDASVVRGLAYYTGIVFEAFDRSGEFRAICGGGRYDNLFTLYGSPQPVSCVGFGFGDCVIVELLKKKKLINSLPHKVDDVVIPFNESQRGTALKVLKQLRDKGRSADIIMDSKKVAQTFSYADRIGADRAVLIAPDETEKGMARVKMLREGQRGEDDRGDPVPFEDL

Lysine--tRNA ligase = Lysine--tRNA ligase (Plasmodium falciparum (isolate 3D7), UniProt Q8IDJ8); assay: Pf-KRS-1 (Lysyl-RNA Synthetase-1, KRS-1, cytosolic KRS) from Plasmodium falciparum. Inhibitor assay, 384 well plate, luminescence read.; assay type: functional
Sequence of Lysine--tRNA ligase (Q8IDJ8 whole entry): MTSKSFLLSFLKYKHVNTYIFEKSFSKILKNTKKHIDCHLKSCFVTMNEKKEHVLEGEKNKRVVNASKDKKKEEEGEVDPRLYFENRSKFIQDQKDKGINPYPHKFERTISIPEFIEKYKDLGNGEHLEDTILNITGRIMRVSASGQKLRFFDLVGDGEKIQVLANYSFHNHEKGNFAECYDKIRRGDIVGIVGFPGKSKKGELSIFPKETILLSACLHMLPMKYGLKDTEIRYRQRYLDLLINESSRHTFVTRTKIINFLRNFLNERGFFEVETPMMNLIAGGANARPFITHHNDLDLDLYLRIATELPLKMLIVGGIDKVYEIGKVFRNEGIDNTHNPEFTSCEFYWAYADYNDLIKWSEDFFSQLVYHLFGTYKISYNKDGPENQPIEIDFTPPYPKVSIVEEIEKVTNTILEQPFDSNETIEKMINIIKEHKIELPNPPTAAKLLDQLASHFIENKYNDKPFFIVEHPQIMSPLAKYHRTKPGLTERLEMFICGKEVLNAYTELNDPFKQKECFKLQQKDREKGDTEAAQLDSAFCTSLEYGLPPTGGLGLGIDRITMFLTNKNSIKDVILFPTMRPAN

[1] = microbe, parasite or virus in culture; details: Mycobacterium tuberculosis, 96 h, read-out: pIC50 (converted)
Plasmodium falciparum = assay: Calibr Malaria Delayed Death Assay SOP; assay type: functional, organism-based
[2] = In vitro enzyme assay to detect hydrolysis of chlorophenol red-beta-D-[…] directly proportional to the number of Toxoplasma stably expressing beta-galactosidase; assay type: functional, organism-based, Toxoplasma gondii; details: for IC50: Toxoplasma gondii
[3] = microbe, parasite or virus in culture; details: Mycobacterium tuberculosis, 72 h, read-out: pIC50 (converted)
Leishmania donovani = assay: Leishmania intramacrophage assay; assay type: functional, organism-based; details: Leishmania donovani
ClpP1P2 = ClpP1P2 (Mycobacterium tuberculosis (strain ATCC 25618 / H37Rv), UniProt P9WPC3+P9WPC5); assay: in vitro assay to detect presence of AMC directly proportional to the activity of ClpP1P2. GHDDI collaboration.; assay type: functional
Sequence of ClpP1P2 (P9WPC5 whole entry): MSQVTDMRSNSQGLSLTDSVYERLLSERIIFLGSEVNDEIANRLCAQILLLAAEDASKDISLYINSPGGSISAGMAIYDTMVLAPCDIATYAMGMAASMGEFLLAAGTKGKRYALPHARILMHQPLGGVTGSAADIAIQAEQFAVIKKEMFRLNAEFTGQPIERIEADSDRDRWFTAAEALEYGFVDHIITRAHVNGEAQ
Sequence of ClpP1P2 (P9WPC3 whole entry): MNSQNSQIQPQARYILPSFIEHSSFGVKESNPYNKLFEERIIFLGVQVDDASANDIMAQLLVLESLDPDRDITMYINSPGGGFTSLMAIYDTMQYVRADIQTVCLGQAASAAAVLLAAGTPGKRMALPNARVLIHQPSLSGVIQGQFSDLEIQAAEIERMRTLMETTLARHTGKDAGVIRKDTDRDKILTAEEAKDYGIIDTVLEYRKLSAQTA

COCCn1cc(NC(=O)NC(C)CCc2ccccc2)ccc1=O (stereo not drawn)
IC50 (Histidine--tRNA ligase): 3.09 µM and 3.5 µM
IC50 (Lysine--tRNA ligase): > 50.1 µM

CCc1ccc(-c2cc(C(F)(F)F)nc(N3CCC(N)CC3)n2)cc1
IC50 (Histidine--tRNA ligase): 26.9 µM and 24.6 µM
IC50 [1]: 15.3 µM
IC50 (Lysine--tRNA ligase): > 50.1 µM
pIC50 (Plasmodium falciparum): 5.997
IC50 (Plasmodium falciparum; Plasmodium falciparum): 1.03 µM
pIC50 [2]: 5.409
IC50 [2]: 2.22 µM
IC50 [3]: 13 µM

Oc1ccc(N(CCc2ccccc2)CCn2cncn2)cc1
IC50 (Histidine--tRNA ligase): 39.6 µM and 56.7 µM
IC50 (Lysine--tRNA ligase): > 50.1 µM

COCCn1cc(NCc2cn(C)nc2-c2ccncc2)cn1
IC50 (Histidine--tRNA ligase): 47.4 µM and 46.6 µM
IC50 (Lysine--tRNA ligase): > 50.1 µM

COCCCN1CCc2cncnc2C1
IC50 (Histidine--tRNA ligase): 29.5 µM and 38.3 µM
IC50 (Lysine--tRNA ligase): > 50.1 µM

Cc1occc1CN(C)C(=O)Nc1ccc(=O)n(C)c1
IC50 (Histidine--tRNA ligase): 9.57 µM and 9.94 µM
IC50 (Lysine--tRNA ligase): > 50.1 µM

CCn1cc(CNc2ccc3nccnc3c2)cn1
IC50 (Histidine--tRNA ligase): 9.36 µM and 8.25 µM
IC50 (Lysine--tRNA ligase): > 50.1 µM

Cn1cccc(NC(=O)N2CCC(COCc3ccccc3)C2)c1=O (stereo not drawn)
IC50 (Histidine--tRNA ligase): 3.47 µM and 4.31 µM
IC50 (Lysine--tRNA ligase): > 50.1 µM

COc1ncc(C)cc1NC(=O)COCC(F)(F)F
IC50 (Histidine--tRNA ligase): 25.3 µM and 19.4 µM
IC50 (Lysine--tRNA ligase): > 50.1 µM

Cn1cc(Br)cc(NC(=O)CC(C)(C)C)c1=O
IC50 (Histidine--tRNA ligase): 13.9 µM and 12 µM
IC50 (Lysine--tRNA ligase): > 50.1 µM

COCCn1cc(NC(=O)C(C)CCc2ccccc2F)ccc1=O (stereo not drawn)
IC50 (Histidine--tRNA ligase): 3.96 µM and 4.01 µM
IC50 (Lysine--tRNA ligase): > 50.1 µM

Cc1noc(C(C)Nc2ccc3oc(C(C)C)nc3c2)n1 (stereo not drawn)
IC50 (Histidine--tRNA ligase): 34.3 µM and 43.8 µM
IC50 (Lysine--tRNA ligase): > 50.1 µM

CC(C)Cc1ccc(S(=O)(=O)Nc2ccc(=O)n(C)c2)cc1
IC50 (Histidine--tRNA ligase): 12.5 µM and 18.7 µM
IC50 (Lysine--tRNA ligase): > 50.1 µM

Cn1nc2c(cc1=O)CN(c1ncnc3ccsc13)CC2
IC50 (Histidine--tRNA ligase): 14.1 µM and 17.4 µM
IC50 (Lysine--tRNA ligase): > 50.1 µM
IC50 [2]: 6.44 µM

CCCn1nc2c(cc1=O)CN(CCCS(N)(=O)=O)CC2
IC50 (Histidine--tRNA ligase): 31.6 µM and 50.9 µM
IC50 (Lysine--tRNA ligase): > 50.1 µM

COc1ncc(-c2c(C#N)c(N)nc3c2CCc2[nH]ccc2-3)cn1
IC50 (Histidine--tRNA ligase): 8.08 µM and 5.62 µM
IC50 (Lysine--tRNA ligase): > 50.1 µM

CC(C(=O)Nc1ccc(Cl)cn1)N1CCc2nn(C)c(=O)cc2C1 (stereo not drawn)
IC50 (Histidine--tRNA ligase): 19.9 µM and 23 µM
IC50 (Lysine--tRNA ligase): > 50.1 µM

Cc1cc(=O)n(C)cc1NC(=O)CC1CCC1
IC50 (Histidine--tRNA ligase): 7.56 µM and 7.2 µM
IC50 (Lysine--tRNA ligase): > 50.1 µM

Cn1nc2c(cc1=O)CN(CC1CCCCO1)CC2 (stereo not drawn)
IC50 (Histidine--tRNA ligase): 23.7 µM and 25 µM
IC50 (Lysine--tRNA ligase): > 50.1 µM

COCCc1ncc(-c2c(C#N)c(N)nc3c2CCc2[nH]ccc2-3)cn1
IC50 (Histidine--tRNA ligase): 6.54 µM and 5.62 µM
IC50 (Lysine--tRNA ligase): > 50.1 µM

Cc1nnc(NCC(c2ccco2)N2CCCC2)c(C#N)c1C (stereo not drawn)
IC50 (Histidine--tRNA ligase): 27.1 µM and 17.8 µM
IC50 (Lysine--tRNA ligase): > 50.1 µM

COC(=O)c1ccc(OC)c(Cn2cc(N)cn2)c1
IC50 (Histidine--tRNA ligase): 56.4 µM and 66 µM
IC50 (Lysine--tRNA ligase): > 50.1 µM

Cn1cc(Br)cc(NC(=O)CC2CCC2)c1=O
IC50 (Histidine--tRNA ligase): > 100 µM
IC50 (Lysine--tRNA ligase): > 50.1 µM

CC1=C(C#N)C(=O)N(C)C(=O)/C1=C\C1=Cc2ccccc2OC1
IC50 (Histidine--tRNA ligase): 1.12 µM and 1.35 µM and 1.76 µM and 1.15 µM
IC50 (Lysine--tRNA ligase): > 50.1 µM

CCCOCC1CCN(C(=O)Cn2cccc(OC)c2=O)C1 (stereo not drawn)
IC50 (Histidine--tRNA ligase): 2.01 µM and 1.03 µM and 2.08 µM and 1.01 µM
IC50 (Lysine--tRNA ligase): > 50.1 µM

CCCn1nc2c(cc1=O)CN(c1ncnc3ccsc13)CC2
IC50 (Histidine--tRNA ligase): 43.5 µM and 33.5 µM
IC50 (Lysine--tRNA ligase): > 50.1 µM

Cc1cccc(-c2noc(CN3CCc4nn(C)c(=O)cc4C3)n2)c1
IC50 (Histidine--tRNA ligase): 9.38 µM and 11.6 µM
IC50 (Lysine--tRNA ligase): > 50.1 µM

Nc1nc(CC(=O)N2CCCC(CCc3cccc(F)c3)C2)cc(=O)[nH]1 (stereo not drawn)
IC50 (Histidine--tRNA ligase): 13.8 µM and 10 µM
IC50 (Lysine--tRNA ligase): > 50.1 µM

COc1cc(F)c(S(=O)(=O)Nc2cnc(O)cc2C)cc1OC
IC50 (Histidine--tRNA ligase): 16.2 µM and 17.5 µM
IC50 (Lysine--tRNA ligase): > 50.1 µM

Cn1cnnc1C1CCN(c2cncc(-n3cccn3)n2)CC1
IC50 (Leishmania donovani): > 50.1 µM
IC50 (ClpP1P2): > 100 µM
IC50 (Lysine--tRNA ligase): > 50.1 µM

Cc1ccc(S(=O)(=O)Nc2ccc(=O)n(C)c2)cc1
IC50 (Histidine--tRNA ligase): 24.8 µM and 32.1 µM
IC50 (Leishmania donovani): > 50.1 µM
IC50 (Lysine--tRNA ligase): > 50.1 µM

Cn1cccc(NC(=O)N2CCC(Cc3ccccc3)C2)c1=O (stereo not drawn)
IC50 (Histidine--tRNA ligase): 9.56 µM and 6.68 µM
IC50 (Lysine--tRNA ligase): > 50.1 µM

Cc1noc(C(C)Nc2ccc3oc(C)nc3c2)n1 (stereo not drawn)
IC50 (Histidine--tRNA ligase): 23.9 µM and 20.4 µM
IC50 (Lysine--tRNA ligase): > 50.1 µM

CN(Cc1ccco1)C(=O)Nc1ccc(=O)n(C)c1
IC50 (Histidine--tRNA ligase): 11.6 µM and 9.89 µM
IC50 (Lysine--tRNA ligase): > 50.1 µM

Cc1nnc(N2CCc3cncnc3C2)c(C#N)c1C
IC50 (Histidine--tRNA ligase): 21.4 µM and 27.5 µM
IC50 (Lysine--tRNA ligase): > 50.1 µM

CC(C)NC(=O)N1CCC(c2nnc3n2CCNC3)CC1
IC50 (Histidine--tRNA ligase): 14.9 µM and 14.8 µM
IC50 (Lysine--tRNA ligase): > 50.1 µM

COc1ccc(N)c(N2CCN(C(C)=O)CC2)n1
IC50 (Histidine--tRNA ligase): 16.5 µM and 15.6 µM
IC50 (Lysine--tRNA ligase): > 50.1 µM
